pEC50, pIC50: −log10 of the molar value. Read-outs that look alike come from different tables or passages of the source. Values belong to the compound of their own block, whether it stands above or below them.
Assays:
HeLa cells = HeLa cells viability assay; assay type: cell-based; details: Homo sapiens, Table 12
Protocol: Relative numbers of viable cells was determined by XTT assay. Briefly, in a 96-well plate, we added 50 μl of a mixture of 1 mg/ml of XTT (2,3-bis(2-methoxy-4-nitro-5-sulfophenyl)-5-[(phenylamino)carbonyl]-2H-tetrazolium hydroxide) (Polysciences, Washington, Pa.) containing 0.025 mM PMS (phenazine methosulfate) to each well. The 96-well plates were reincubated for an additional 4 hours to allow for XTT formazan production. Then, the contents of each plate were mixed and optical densities were determined at a wavelength of 450 nm (OD450). Net OD450 was determined after subtracting OD450 of blank wells. […] Immunoblot analysis of BCL-XL was accomplished as previously described.

H460 cell line = details: studied by other groups; cited from earlier work
[1] = system: H460 human lung cell line; assay: Cell viability, ATP-LITE assay; assay type: cell-based; details: ATP-LITE assay, read-out: EC50 H460
In short: (§1)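 Human cancer lines were seeded at 2000 (H460, H1299), 3000 (PC3) or 10,000 (RS11846) cells/well in F12 or RPMI1640 with 5% FBS. Compounds were added in 0.1% DMSO 24 h after seeding. Viability was read by ATP-LITE luminescence after 72 h and normalized to DMSO controls.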

[2] = Liver microsomal stability; assay type: in vitro ADME, rat; details: Table 6; rat liver microsomes, 1 h
Text: Liver Microsomal Stability.

Bfl-1 = target: T1, Bfl-1 (Homo sapiens, UniProt Q16548); assay: Competitive fluorescence polarization assay (FPA); assay type: binding
T1 sequence (Q16548 1-175): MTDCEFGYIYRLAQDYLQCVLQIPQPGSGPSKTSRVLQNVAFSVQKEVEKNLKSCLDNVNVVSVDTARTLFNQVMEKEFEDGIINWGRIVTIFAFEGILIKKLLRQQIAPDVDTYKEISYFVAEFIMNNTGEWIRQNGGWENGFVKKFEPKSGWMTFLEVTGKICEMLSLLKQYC

PC3ML cells = assay: Cell viability, ATP-LITE assay; assay type: cell-based, human; details: Table 3; ATP-LITE assay; heading: EC50 PC3ML; read-out: EC50 PC3ML
In short: as §1

[3] = Chemical stability of solid compounds at room temperature (HPLC, LCMS); details: in air, Apogossypol in the absence of ascorbic acid
Text: The stability of compound was monitored using a combination of HPLC and LCMS.

Plasma stability = assay type: in vitro ADME, rat
Protocol: Plasma Stability. A 20 μL aliquot of a 10 mM solution in DMSO of the test compound was added to 2.0 mL of heparinized rat plasma (Lampire, P1-150N) to obtain a 100 μM final solution. The mixture was incubated for 1 h at 37.5° C. Aliquots of 100 μL were taken (0, 30 min, 1 h) and diluted with 200 μL of MeOH containing internal standard.

[4] = system: BP3 human B-cell lymphoma cell line; assay: Annexin V-FITC and propidium iodide assay; assay type: cell-based; details: Annexin V-FITC and propidium iodide assay, read-out: EC50 BP3
[5] = PAMPA cell membrane permeability; assay type: in vitro ADME; details: Table 11; Low/Medium, not defined
Text: PAMPA is parallel artificial membrane permeation assay.

BCL-2 transgenic mice = assay: Oral efficacy study in BCL-2 transgenic mice, QDx5 for 3 weeks; details: low dose 0.06 mmol/kg oral
Protocol: The volume of administration was 10 ml/kg, i.e., typically 0.2 mL per 20 gm mouse. […] Age-matched, sex-matched mice were typically dosed 5 times weekly, using a regiment of daily dosing 5 consecutive days (Monday through Friday), followed by resting for 2 days, before resuming dosing. […] At conclusion of treatments, mice were sacrificed via intra-peritoneal (i.p.) injection of 0.7 ml of Avertin and whole blood was collected into Yellow-Top Serum Separator tubes (Becton Dickinson Vacutainer Systems Becton Dickinson and Company, Franklin Lakes, N.J. 07417-1885). Spleens were removed and weighed.
Age-matched and sex-matched BCL-2 transgenic mice were used for efficacy studies. BCL-2 transgenic mice spontaneously developed low grade B-cell lymphoma as characterized by splenomegaly, as a function of time. In BCL-2 transgenic mice, the disease progression can be divided into two stages; at the first stage, the disease is characterized by splenomegaly as a result of expansion of B-cells in spleen due to over-expressed BCL-2 in B6 mice, and at the second stage, another genetic hit(s) may strike, resulting in disseminated lymphoma as characterized by bulky lymphadenopathy as well as splenomegaly.
In this study, BCL-2 transgenic mice at the first stage were used for this efficacy study. […] At conclusion of treatment, BCL-2 transgenic mice were sacrificed via intraperitoneal injection of 0.7 ml of avertin (anesthetic solution) and spleen was removed and weighed. Splenocytes were isolated by the use of mouse erythrocyte lysing kit (RD Systems). Total splenocyte count was determined by trypane blue exclusion assays. % B-cell count was determined by FACS analysis after staining cells with CD-5, a B-cell marker.

[6] = system: human lymphoma RS11846 cell line; assay: Apoptosis, Annexin V-FITC and propidium iodide assay; assay type: cell-based; details: Table 3; Annexin V-FITC and propidium iodide assay; heading: EC50 RS11846; read-out: EC50 RS11846
Protocol: The apoptotic activity of the compounds against RS11846 cells was assessed by staining with Annexin V- and propidium iodide (PI). Lymphoma cell line, RS11846, was cultured in RPMI 1640 medium (Mediatech Inc., Herndon, Va. 20171) containing 10% fetal bovine serum (Mediatech Inc., Herndon, Va. 20171) and Penicillin/Streptomycin (Mediatech Inc., Herndon, Va. 20171). […] The percentage of viable cells was determined by FITC-Annexin V- and propidium iodide (PI)-labeling, using an Apoptosis Detection kit (BioVision Inc.), and analyzing stained cells by flow cytometry (FACSort; Bectin-Dickinson, Inc.; Mountain View, Calif.). Cells that were annexin-V-negative and PI-negative were considered viable.

Balb/c mice = assay: Oral toxicity of gossypol vs apogossypol in normal mice; assay type: in vivo, mouse; details: daily dosing studies in mice
Protocol: Compounds or vehicle control were dosed 15 times over 3 weeks, giving compounds daily for 5 consecutive days (Monday-Friday), resting on weekends.
Spleens were removed and weighed.
Whole blood (250 μl) was collected in EDTA-coated glass tubes (purple top; MICROTAINER Brand Tube with EDTA, Catalogue #365973, Becton, Dickinson and Company, New Jersey 07417-1885) via either cardiac puncture or severing the brachial artery of anesthetized mice. After thorough mixing, specimens were analyzed using a VetScan HM2 (Abaxis Inc., Union City, Calif. 94587) hematology analyzer, measuring white blood cell count (WBC), red blood cell count (RBC), platelet (PLT) count, leukocyte differential (including % lymphocyte, % monocyte and % granulocyte), hematocrit (Ht), and hemoglobin (Hb).
(Eppendorf Centrifuge 5415C) for 2 minutes to separate serum from cells and fibrin clot. The resulting serum specimens were analyzed using an automated blood chemistry analyzer (“COBAS MIRA Classic”; Roche, Indianapolis, Ind. 46250-0414) to measure alanine aminotransferase (ALT) and aspartate aminotransferase AST), blood urea nitrogen (BUN), and […].

Bcl-2 = Bcl-2 (Homo sapiens, UniProt P10415); assay: Competitive fluorescence polarization assay (FPA), Bim BH3 peptide; assay type: binding
Sequence of Bcl-2 (P10415 whole entry): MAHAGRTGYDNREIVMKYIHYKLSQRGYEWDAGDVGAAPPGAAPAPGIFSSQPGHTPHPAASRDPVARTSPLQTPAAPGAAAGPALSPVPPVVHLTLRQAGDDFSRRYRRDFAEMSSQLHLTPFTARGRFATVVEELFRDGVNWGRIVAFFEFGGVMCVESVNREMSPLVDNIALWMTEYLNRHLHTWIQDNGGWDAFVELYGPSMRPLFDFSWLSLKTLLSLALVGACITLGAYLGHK

B6Bcl-2 transgenic mice = system: B6Bcl-2 transgenic mice
In short: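 B6 line BCL-2 transgenic mice (human BCL-2 fused to IgH locus/enhancer, Balb/c background) sacrificed 24 h post-treatment by lethal i.p. Avertin. Spleen removed and weighed, fixed 3 days in z-FIX for H&E and TUNEL histology.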

- pIC50 (HeLa cells): 5.19
SMILES: O=c1c(O)cccc2cc(O)c(O)c(O)c12 [Purpurogallin]

SMILES: COC1=CC(c2cc3ccccc3[nH]2)=N/C1=C\c1[nH]c(C)cc1C [GX15-070]
- pIC50 (H460 cell line): 5.41

SMILES: Cc1cc2c(C(C)C)c(O)c(O)cc2c(O)c1-c1c(C)cc2c(C(C)C)c(O)c(O)cc2c1O [Apogossypol, 5,5′-diisopropyl-3,3′-dimethyl-2,2′-binaphthyl-1,1′,6,6′,7,7′-hexanol, reference compound]
- pEC50 [1]: 5.46
- pEC50 ([1]; Table 3, heading: EC50 H460): 5.46
- Microsomal Stability (T = 1 h) [2]: 64%
- pIC50 (Bfl-1): < 5.00
- pEC50 (PC3ML cells): 4.98
- degraded after 60 days at room temperature [3]: ~80%
- degraded after 1 hour incubation in rat plasma (Plasma stability; 1 hour): 47%
- Plasma stability (T = 1 h) (Plasma stability; Table 6, rat plasma, 1 h): 53%
- pEC50 [4]: 5.33
- pEC50 ([4]; Table 3, heading: EC50 BP3): 5.33
- Cell Permeability [5]: Low
- shrinkage of spleen (BCL-2 transgenic mice): induced shrinkage of spleen to a significant extent
- tolerability (BCL-2 transgenic mice): well tolerated
- pEC50 [6]: 5.30
- tolerated doses, times higher than gossypol (Balb/c mice): 2-4
- pIC50 (Bcl-2): 5.37
- Tox (B6Bcl-2 transgenic mice; Bcl-2 transgenic mouse, single ip injection 72 μmol/kg): 0
- percentage of maximum reduction in spleen weight (maximal biological activity) (B6Bcl-2 transgenic mice; single ip 72 μmol/kg, maximum shrinkage no more than 50%): 40%

Reference: patent US8039668B2, “Naphthalene-based inhibitors of anti-apoptotic proteins” (Burnham Institute for Medical Research, priority 2008, dated 2011)
